The source of these data is patent US20210355106A1, “NEW AMINO-PYRIMIDONYL-PIPERIDINYL DERIVATIVES, A PROCESS FOR THEIR PREPARATION AND PHARMACEUTICAL COMPOSITIONS CONTAINING THEM” (LES LABORATOIRES SERVIER, priority 2018, published 2021).

The target of one experiment is T1, USP7 (Homo sapiens, UniProt Q93009, C315A).
T1 construct: 0.25 nM His-His-USP7 (aa208-560, |C315A|) was incubated with compound; His-His (N)
As to the kind of experiment: Inhibition of USP7 by Fluorescence Intensity (FLINT) readings, Ubiquitin-Rhodamine-110 substrate. In kind it is biochemical. As to conditions: 0.25 nM His-His-USP7 (aa208-560), 60 minutes at 30° C. preincubation; Ki determined from IC50 according to Cer et al. In a few lines:
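His-tagged USP7 (aa208-560, C315A), 0.25 nM, preincubated with compound 60 min at 30 °C in 100 mM Bicine pH 8.0, 0.01% Triton X-100, 1 mM TCEP, 10% DMSO. Ubiquitin-Rhodamine-110 (50 nM or 4 μM) added; kinetic fluorescence (Ex 485/Em 535 nm) over 21 min; IC50 from 11-point curves, Ki derived from IC50.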

Experiment [1] has as its system Z138 mantle cell lymphoma tumour cell lines. As to the kind of experiment: In vitro cytotoxicity, MTT assay. Format: cell-based. To be noted: Z138 cells, exposed to the test compounds for 96 hours. In a few lines: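 Z138 cells exposed to compounds for 96 hours, then MTT added for 4 hours. Formazan absorbance at 540 nm serves as the measure of viable cell number.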
For orientation: Formazan colour is commonly taken as a measure of viable cells.

One may read the Ki as a measure of affinity in units of concentration, obtained from inhibition or displacement. A high value points to weaker binding. Broadly, the IC50 is the midpoint of a concentration-inhibition curve. The low end stands for inhibition by little substance, the high end for a need for much substance.

SMILES strings stand for the structures. Where “and” joins values, the source holds several entries; their conditions need not be identical. Equal values may be shown once.

T1 sequence (Q93009 208-560 C315A): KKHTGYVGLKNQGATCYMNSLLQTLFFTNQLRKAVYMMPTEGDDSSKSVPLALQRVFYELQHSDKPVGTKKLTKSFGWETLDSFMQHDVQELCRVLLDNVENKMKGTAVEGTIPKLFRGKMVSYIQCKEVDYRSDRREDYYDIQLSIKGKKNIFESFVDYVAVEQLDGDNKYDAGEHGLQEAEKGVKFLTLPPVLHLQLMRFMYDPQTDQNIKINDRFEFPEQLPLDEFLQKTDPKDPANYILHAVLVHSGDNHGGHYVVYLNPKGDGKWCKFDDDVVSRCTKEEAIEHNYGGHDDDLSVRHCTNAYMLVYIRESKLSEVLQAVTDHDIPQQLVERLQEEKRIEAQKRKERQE

With `Nc1c(Oc2ccc(F)cc2)ncn(CC2(O)CCN(C(=O)[C@@H]3CCN(C4(c5cccc(C(F)(F)F)c5)COC4)C[C@H]3c3ccccc3)CC2)c1=O` [Example 152, 5-amino-6-(4-fluorophenoxy)-3-[[4-hydroxy-1-[(3R,4R)-3-phenyl-1-[3-[3-(trifluoromethyl)phenyl]oxetan-3-yl]piperidine-4-carbonyl]-4-piperidyl]methyl]pyrimidin-4-one], the Ki at USP7 stood at 82 nM. In experiment [1] (Homo sapiens, Z-138), this compound returned an IC50 of 202 nM.

`Nc1c(Oc2ccc(F)cc2)ncn(CC2(O)CCN(C(=O)[C@@H]3CCN(C4(c5cccc(F)c5)COC4)C[C@H]3c3ccccc3)CC2)c1=O` [Example 153, 5-amino-6-(4-fluorophenoxy)-3-[[1-[(3R,4R)-1-[3-(3-fluorophenyl)oxetan-3-yl]-3-phenyl-piperidine-4-carbonyl]-4-hydroxy-4-piperidyl]methyl]pyrimidin-4-one]: the Ki on USP7 amounted to 28.7 nM. Moreover, the IC50 in experiment [1] (Homo sapiens, Z-138) amounted to 62 nM.

Take `COc1cc(Oc2ncn(C[C@@]3(O)CCN(C(=O)[C@@H]4CCN(Cc5cnc(C)cn5)C[C@H]4c4ccccc4)CC3(F)F)c(=O)c2N)ccc1F` [Example 154]: the Ki at USP7 is 7.8 nM. Moreover, half-maximal inhibition in experiment [1] (Homo sapiens, Z-138) (IC50) required 11.4 nM.

Take `Cc1ccc(C2(N3CC[C@@H](C(=O)N4CCC(O)(Cn5cnc(Oc6ccc(F)cc6)c(N)c5=O)CC4)[C@H](c4ccccc4)C3)COC2)cc1` [Example 155]: at USP7, affinity was put at a Ki of 97 nM. Further, the IC50 in experiment [1] was 588 nM.

Compound `Cc1cncc(C(=O)N2CC[C@@H](C(=O)N3CC[C@](O)(Cn4cnc(Oc5ccc(F)cc5)c(N)c4=O)C(F)(F)C3)[C@H](c3ccccc3)C2)c1` [Example 157, 5-amino-3-[[(4S)-3,3-difluoro-4-hydroxy-1-[(3R,4R)-1-(5-methylpyridine-3-carbonyl)-3-phenyl-piperidine-4-carbonyl]-4-piperidyl]methyl]-6-(4-fluorophenoxy)pyrimidin-4-one] gave an inhibitory constant (Ki) at USP7 of 4.83 nM. In experiment [1] (Homo sapiens, Z-138), the IC50 worked out at 5.18 nM.

For `Cc1nc(C2CCCCC2)sc1C(=O)N1CC[C@@H](C(=O)N2CCC(O)(Cn3cnc(Oc4ccc(F)cc4)c(N)c3=O)CC2)[C@H](c2ccccc2)C1` [Example 158], the affinity on USP7 corresponds to a Ki of 10.7 nM. The midpoint of inhibition in experiment [1] (Homo sapiens, Z-138), the IC50, lay at 5.24 nM.

Regarding `Cc1ccc(-c2cccc(S(=O)(=O)N3CC[C@@H](C(=O)N4CCC(O)(Cn5cnc(Oc6ccc(F)cc6)c(N)c5=O)CC4)[C@H](c4ccccc4)C3)c2)cn1` [Example 159, 5-amino-6-(4-fluorophenoxy)-3-[[4-hydroxy-1-[(3R,4R)-1-[3-(6-methyl-3-pyridyl)phenyl]sulfonyl-3-phenyl-piperidine-4-carbonyl]-4-piperidyl]methyl]pyrimidin-4-one], the affinity on USP7 corresponds to a Ki of 22.2 nM. In experiment [1] (Homo sapiens, Z-138), this compound had an IC50 of 8.18 nM.

Regarding `Nc1c(Oc2ccc(F)cc2)ncn(C[C@@]2(O)CCN(C(=O)[C@@H]3CCN(Cc4ccnc(Cl)n4)C[C@H]3c3ccccc3)CC2(F)F)c1=O` [Example 160], on USP7, the affinity, expressed as Ki, was 16.9 nM. The IC50 in experiment [1] (Homo sapiens, Z-138) is 6.47 nM.

In the case of `Cc1nc(C2CCCC2)sc1C(=O)N1CC[C@@H](C(=O)N2CCC(O)(Cn3cnc(Oc4ccc(F)cc4)c(N)c3=O)CC2)[C@H](c2ccccc2)C1` [Example 161, 5-amino-3-[[1-[(3R,4R)-1-(2-cyclopentyl-4-methyl-thiazole-5-carbonyl)-3-phenyl-piperidine-4-carbonyl]-4-hydroxy-4-piperidyl]methyl]-6-(4-fluorophenoxy)pyrimidin-4-one], the Ki at USP7 stood at 10.1 nM. Also, the IC50 in experiment [1] (Homo sapiens, Z-138) turned out to be 3.63 nM.

As for `Cc1cc(Cl)cc(C(=O)N2CC[C@@H](C(=O)N3CCC(O)(Cn4cnc(Oc5ccc(F)cc5)c(N)c4=O)CC3)[C@H](c3ccccc3)C2)c1` [Example 162], at USP7, the affinity corresponds to a Ki of 12.7 nM. The compound further returned an IC50 in experiment [1] (Homo sapiens, Z-138) of 3.72 nM.

Turning to `Nc1c(Oc2ccc(F)cc2)ncn(CC2(O)CCN(C(=O)[C@@H]3CCN(C(=O)c4cncc(-n5cccc5)c4)C[C@H]3c3ccccc3)CC2)c1=O` [Example 163, 5-amino-6-(4-fluorophenoxy)-3-[[4-hydroxy-1-[(3R,4R)-3-phenyl-1-(5-pyrrol-1-ylpyridine-3-carbonyl)piperidine-4-carbonyl]-4-piperidyl]methyl]pyrimidin-4-one], at USP7, the Ki was 9.76 nM. The compound further returned an IC50 in experiment [1] (Homo sapiens, Z-138) of 1.41 nM.

Regarding `Cc1ccc(-c2cc(CN3CC[C@@H](C(=O)N4CC[C@](O)(Cn5cnc(Oc6ccc(F)cc6)c(N)c5=O)C(F)(F)C4)[C@H](c4ccccc4)C3)ncn2)cn1` [Example 164, 5-amino-3-[[(4S)-3,3-difluoro-4-hydroxy-1-[(3R,4R)-1-[[6-(6-methyl-3-pyridyl)pyrimidin-4-yl}methyl]-3-phenyl-piperidine-4-carbonyl]-4-piperidyl]methyl]-6-(4-fluorophenoxy)pyrimidin-4-one], the Ki on USP7 is 6.48 nM and 5.16 nM. Moreover, the IC50 in experiment [1] (Homo sapiens, Z-138) came out at 1.83 nM.

The compound `Cc1nc(C2CCC2)sc1C(=O)N1CC[C@@H](C(=O)N2CCC(O)(Cn3cnc(Oc4ccc(F)cc4)c(N)c3=O)CC2)[C@H](c2ccccc2)C1` [Example 165, 5-amino-3-[[1-[(3R,4R)-1-(2-cyclobutyl-4-methyl-thiazole-5-carbonyl)-3-phenyl-piperidine-4-carbonyl]-4-hydroxy-4-piperidyl]methyl]-6-(4-fluorophenoxy)pyrimidin-4-one] had a Ki at USP7 of 9.33 nM. In experiment [1] (Homo sapiens, Z-138), this compound came in with an IC50 of 2.74 nM.

With `Cc1nccc(CN2CC[C@@H](C(=O)N3CC[C@](O)(Cn4cnc(Oc5ccc(Cl)cc5)c(N)c4=O)C(F)(F)C3)[C@H](c3ccccc3)C2)n1` [Example 168], the affinity at USP7 corresponds to a Ki of 38.5 nM. The compound further gave an IC50 in experiment [1] (Homo sapiens, Z-138) of 13.8 nM.

On to `Cc1ccc(-c2nc(C)c(C(=O)N3CC[C@@H](C(=O)N4CCC(O)(Cn5cnc(Oc6cccnc6)c(N)c5=O)CC4)[C@H](c4ccccc4)C3)s2)cn1` [Example 169], for which the Ki at USP7 turned out to be 3.47 nM. Also, half-maximal inhibition in experiment [1] (Homo sapiens, Z-138) (IC50) required 16.6 nM.

Consider `Nc1c(Oc2ccc(F)cc2)ncn(CC2(O)CCN(C(=O)[C@@H]3CCN(C4(c5cccc(Cl)c5)COC4)C[C@H]3c3ccccc3)CC2)c1=O` [Example 171], for which the Ki at USP7 stood at 42.8 nM. Besides, it took 31.4 nM to reach half-maximal inhibition in experiment [1] (Homo sapiens, Z-138) (IC50).

`Cc1nc(C2CCCNC2)sc1C(=O)N1CC[C@@H](C(=O)N2CCC(O)(Cn3cnc(Oc4ccc(F)cc4)c(N)c3=O)CC2)[C@H](c2ccccc2)C1` (stereo partly drawn) [Example 172, 5-amino-6-(4-fluorophenoxy)-3-[[4-hydroxy-1-[(3R,4R)-1-[4-methyl-2-(3-piperidyl)thiazole-5-carbonyl]-3-phenyl-piperidine-4-carbonyl]-4-piperidyl]methyl]pyrimidin-4-one]: the affinity on USP7 corresponds to a Ki of 7.64 nM. Moreover, the IC50 in experiment [1] (Homo sapiens, Z-138) is 385 nM.

At USP7, `COc1cc(Cl)cc(Oc2ncn(C[C@@]3(O)CCN(C(=O)[C@@H]4CCN(Cc5ccnc(C)n5)C[C@H]4c4ccccc4)CC3(F)F)c(=O)c2N)c1` [Example 175, 5-amino-6-(3-chloro-5-methoxy-phenoxy)-3-[[(4S)-3,3-difluoro-4-hydroxy-1-[(3R,4R)-1-[(2-methylpyrimidin-4-yl)methyl]-3-phenyl-piperidine-4-carbonyl]-4-piperidyl]methyl]pyrimidin-4-one] returned a Ki of 81.2 nM. This compound also yielded an IC50 in experiment [1] (Homo sapiens, Z-138) of 26.5 nM.
